For eight compounds, ΔTm, Activity and Kd results are on record in ChEMBL document CHEMBL3822446, “Synthesis of 1H-pyrrolo[3,2-h]quinoline-8-amine derivatives that target CTG trinucleotide repeats” (Bioorg Med Chem Lett, 2016).

Test [1] in a line: Binding affinity to duplex DNA dT bulge (unknown origin) assessed as change in melting point at 50 uM by UV-Vis spectrophotometric analysis.
Test [2] is described as follows: Binding affinity to duplex DNA dA bulge (unknown origin) assessed as change in melting point at 50 uM by UV-Vis spectrophotometric analysis.
A short description of test [3]: Binding affinity to duplex DNA dG bulge (unknown origin) assessed as change in melting point at 50 uM by UV-Vis spectrophotometric analysis.
The nature of test [4]: Binding affinity to duplex DNA dC bulge (unknown origin) assessed as change in melting point at 50 uM by UV-Vis spectrophotometric analysis.
Test [5] can be described thus: Binding affinity to full match duplex DNA (unknown origin) assessed as change in melting point at 50 uM by UV-Vis spectrophotometric analysis.
A short description of test [6]: Binding affinity to 5'-Biotinylated DNA d(CTG)9-3' (unknown origin) assessed as red shifting of abosrption band at 349 nm at 10 uM by UV-spectrophotometric analysis.
The nature of test [7]: Binding affinity to 5'-biotinylated DNA d(CTG)9-3' (unknown origin) after 120 sec by SPR assay. Conditions: read-out: Kd(app). A general note: In SPR one partner is held on a chip, and binding of the other changes the refractive index at the surface.
Test [8] in a line: Binding affinity to 5'-Biotinylated DNA d(CCG)9-3' (unknown origin) after 120 sec by SPR assay. Conditions: read-out: Kd(app).
A short description of test [9]: Binding affinity to 5'-Biotinylated DNA d(CAG)9-3' (unknown origin) at 0.63 to 10 uM after 120 sec by SPR assay.
Test [10] is described as follows: Binding affinity to 5'-Biotinylated DNA d(CGG)9-3' (unknown origin) at 0.63 to 10 uM after 120 sec by SPR assay.
Test [11] can be described thus: Binding affinity to 5'-Biotinylated DNA d(CTG)9-3' (unknown origin) by isothermal titration calorimetry. (In general: ITC needs no label: the signal is the heat of the interaction.)

Calls of active or inactive are those of the source. The rule behind the calls is not given here.

Regarding `NCCCCC(=O)Nc1ccc2ccc3cc[nH]c3c2n1`, in [1], the ΔTm came to 2.6 °C.

In the case of `NCCCC(=O)Nc1ccc2ccc3cc[nH]c3c2n1`, the ΔTm in test [1] is 3.6 °C.

Consider `NCCC(=O)Nc1ccc2ccccc2n1`, for which the ΔTm in test [1] came to 0.3 °C.

`NCCC(=O)Nc1ccc2ccc3cc[nH]c3c2n1`: the shift in melting temperature (ΔTm) in test [1] was 4.7 °C; in test [2], 1.7 °C; in [3], 1.7 °C; in test [4] it was 3.5 °C; in test [5] it was 0.9 °C.

For `Nc1cccc(N)n1`, the outcome in [6] was inactive.

With `NCCCNC(=O)Nc1ccc2ccccc2n1`, the ΔTm in [1] came to 1.3 °C.

As to `NCCCNC(=O)Nc1ccc2ccc3cc[nH]c3c2n1`, the ΔTm in test [1] came out at 5.2 °C; in test [2], 1.4 °C; in [3], 1 °C; in test [4], 5.8 °C; in test [5] it was 0.8 °C. Further, the values for the Kd in test [7], in [8] and in [11] were 20 µM, 33 µM and 17 µM, respectively. Further, the outcome in test [9] and in test [10] was inactive. Besides, the Activity in [6] came out at 8 nm.

As to `NCC(=O)Nc1ccc2ccc3cc[nH]c3c2n1`, the shift in melting temperature (ΔTm) in [1] was determined as 2.9 °C.

A word on the ΔTm: it is the change in melting temperature against a reference sample.
